One assay deals with T1, full-length recombinant human NEK7 (Homo sapiens, UniProt Q8TDX7).
T1 construct: full-length recombinant human NEK7; GST (N); purchased SignalChem N09-10G; host or cells: Sf9 insect cells (baculovirus)
T1 sequence (Q8TDX7 whole entry): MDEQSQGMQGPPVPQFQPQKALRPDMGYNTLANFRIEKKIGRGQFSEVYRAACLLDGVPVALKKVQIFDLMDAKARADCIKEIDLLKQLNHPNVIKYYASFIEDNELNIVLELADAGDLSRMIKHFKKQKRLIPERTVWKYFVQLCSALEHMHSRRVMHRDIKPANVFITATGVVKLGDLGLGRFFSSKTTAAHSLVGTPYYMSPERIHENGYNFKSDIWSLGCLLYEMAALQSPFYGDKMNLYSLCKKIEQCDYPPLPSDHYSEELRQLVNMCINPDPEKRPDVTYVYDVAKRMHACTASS
Put plainly: NEK7 enzymatic assay ([33P]-ATP, casein substrate). It is filed as biochemical. The following applies: Table 2a; recombinant human NEK7, casein substrate. The method, then:
In some embodiments, the IC50 of the compounds of Structure (I), (Ia), (Ib), (Ic), (Id), (Ie), or (If) to inhibit NEK7 was determined by the concentration of the compound required to inhibit 50% of the activity of the NEK kinase.
(§1) Casein substrate (from bovine milk, hydrolyzed and partially dephosphorylated mixture of α, β and κ caseins, obtained from Sigma Aldrich, catalogue #C4765, diluted in distilled water to a final concentration of 1 mg/mL) and full-length recombinant human NEK7 (expressed by baculovirus in Sf9 insect cells using a N-terminal GST tag, obtained from SignalChem, catalogue #N09-10G, 0.1 μg/μL) were mixed in assay buffer (20 mM Hepes pH 7.5, 10 mM MgCl2, 1 mM EGTA, 0.02% Brij35, 0.02 mg/ml BSA, 0.1 mM Na3 VO4, 2 mM DTT, 1% DMSO). Compounds of interest (serial 3-fold dilution in DMSO from 10 μM to 0.5 nM) or vehicle (1% DMSO) were dispensed into the kinase reaction mixture by Acoustic technology (Echo550, nanoliter range). After incubation at room temperature for 20 minutes, the kinase reaction was initiated by addition of [^33P]-ATP (specific activity 10 μCi/μl) and the mixture was incubated at room temperature for 2 hours. The reaction was then stopped by spotting the reaction mixture on strips of phosphocellulose P81 paper. Following washing, the radioactivity of the P81 paper was measured and kinase activity data were expressed as the percent remaining kinase activity in test samples compared to vehicle reactions. IC50 values and curve fits were obtained using Prism (GraphPad Software).
as §1, with “μg/L)” for “μg/μL)”, “Na3VO4,” for “Na3 VO4,”, “(Echo550;” for “(Echo550,”
The term IC50 denotes the midpoint of a concentration-inhibition curve. On to `CC(C)n1nc(-c2ccc(NC(=O)Nc3cc(C(C)(C)C)no3)cc2)c2c(N)ncnc21` [Ia-1, 1-(4-(4-amino-1-isopropyl-1H-pyrazolo[3,4-d]pyrimidin-3-yl)phenyl)-3-(3-(tert-butyl)isoxazol-5-yl)urea], for which the half-maximal inhibitory concentration (IC50) is 301 to 500 nM.

As to `CC(C)(C)c1cc(NC(=O)Nc2ccc(-c3nn(C4COC4)c4ncnc(N)c34)cc2)on1` [Ia-2, 1-(4-(4-amino-1-(oxetan-3-yl)-1H-pyrazolo[3,4-d]pyrimidin-3-yl)phenyl)-3-(3-(tert-butyl)isoxazol-5-yl)urea], the 50% inhibitory concentration (IC50) was in the range of 151 to 300 nM.

As to `CC(C)(C)c1cc(NC(=O)Nc2ccc(-c3nn(C4COC4)c4ncnc(N)c34)cc2)no1` [Ia-3, 1-(4-(4-amino-1-(oxetan-3-yl)-1H-pyrazolo[3,4-d]pyrimidin-3-yl)phenyl)-3-(5-(tert-butyl)isoxazol-3-yl)urea], the IC50 was in the range of 151 to 300 nM.

`CC(C)(C)c1cc(NC(=O)Nc2ccc(-c3nn(C4CCOCC4)c4ncnc(N)c34)cc2)on1` [Ia-4, 1-(4-(4-amino-1-(tetrahydro-2H-pyran-4-yl)-1H-pyrazolo[3,4-d]pyrimidin-3-yl)phenyl)-3-(3-(tert-butyl)isoxazol-5-yl)urea]: the concentration for half-maximal inhibition (IC50) was 301 to 500 nM.

`CC(C)(C)c1cc(NC(=O)Nc2ccc(-c3nn(C4CCOC4)c4ncnc(N)c34)cc2)on1` (centres unmarked) [Ia-5, 1-(4-(4-amino-1-(tetrahydrofuran-3-yl)-1H-pyrazolo[3,4-d]pyrimidin-3-yl)phenyl)-3-(3-(tert-butyl)isoxazol-5-yl)urea]: the IC50 was 151 to 300 nM.

With `CC(C)n1nc(-c2ccc(NC(=O)Nc3cc(C(C)(C)C)no3)c(Cl)c2)c2c(N)ncnc21` [Ia-6], the half-inhibitory concentration (IC50) lay within 501 to 1500 nM.

For the compound `CC(C)(C)c1cc(NC(=O)Nc2ccc(-c3nn(C4CCC4)c4ncnc(N)c34)cc2)on1` [Ia-7, 1-(4-(4-amino-1-cyclobutyl-1H-pyrazolo[3,4-d]pyrimidin-3-yl)phenyl)-3-(3-(tert-butyl)isoxazol-5-yl)urea], the 50% inhibitory concentration (IC50) lay in the range of 151 to 300 nM.

Turning to `CC(C)(C)c1cc(NC(=O)Nc2ccc(-c3nn(C4CCC4)c4ncnc(N)c34)cc2F)on1` [Ia-8, 1-(4-(4-amino-1-cyclobutyl-1H-pyrazolo[3,4-d]pyrimidin-3-yl)-2-fluorophenyl)-3-(3-(tert-butyl)isoxazol-5-yl)urea], the concentration for half-maximal inhibition (IC50) is below 150 nM.

Consider `CC(C)(O)Cn1nc(-c2ccc(NC(=O)Nc3cc(C(C)(C)C)no3)cc2)c2c(N)ncnc21` [Ia-9, 1-(4-(4-amino-1-(2-hydroxy-2-methylpropyl)-1H-pyrazolo[3,4-d]pyrimidin-3-yl)phenyl)-3-(3-(tert-butyl)isoxazol-5-yl)urea], for which the concentration for half-maximal inhibition (IC50) fell in the range of 301 to 500 nM.

`CC(C)(O)Cn1nc(-c2ccc(NC(=O)Nc3cc(C(C)(C)C)no3)c(F)c2)c2c(N)ncnc21` [Ia-10]: the concentration for half-maximal inhibition (IC50) was below 150 nM.

As for `CC(C)n1nc(-c2ccc(NC(=O)Nc3cc(C(C)(C)C)no3)c(F)c2)c2c(N)ncnc21` [Ia-11, 1-(4-(4-amino-1-isopropyl-1H-pyrazolo[3,4-d]pyrimidin-3-yl)-2-fluorophenyl)-3-(3-(tert-butyl)isoxazol-5-yl)urea], the IC50 is below 150 nM.

With `CC(C)(C)c1cc(NC(=O)Nc2ccc(-c3nn(C4CCC(O)CC4)c4ncnc(N)c34)cc2F)on1` (centres unmarked) [Ia-15], the 50% inhibitory concentration (IC50) was below 150 nM.

Take `CC(C)(C)c1cc(NC(=O)Nc2ccc(-c3nn(C4CC(F)(F)C4)c4ncnc(N)c34)cc2F)on1` [Ia-16, 1-(4-(4-amino-1-(3,3-difluorocyclobutyl)-1H-pyrazolo[3,4-d]pyrimidin-3-yl)-2-fluorophenyl)-3-(3-(tert-butyl)isoxazol-5-yl)urea]: the IC50 lay within 501 to 1500 nM.

Consider `CC(C)(C)c1cc(NC(=O)Nc2ccc(-c3nn(-c4ccncc4)c4ncnc(N)c34)cc2F)on1` [Ia-17, 1-(4-(4-amino-1-(pyridin-4-yl)-1H-pyrazolo[3,4-d]pyrimidin-3-yl)-2-fluorophenyl)-3-(3-(tert-butyl)isoxazol-5-yl)urea], for which the concentration for half-maximal inhibition (IC50) was 301 to 500 nM.

Consider `CC(C)(C)c1cc(NC(=O)Nc2ccc(-c3nn(C4CCS(=O)(=O)C4)c4ncnc(N)c34)cc2F)on1` (centres unmarked) [Ia-18, 1-(4-(4-amino-1-(1,1-dioxdotetrahydrothiophen-3-yl)-1H-pyrazolo[3,4-d]pyrimidin-3-yl)-2-fluorophenyl)-3-(3-(tert-butyl)isoxazol-5-yl)urea], for which the IC50 was 151 to 300 nM.

Regarding `CC(C)(C)c1cc(NC(=O)Nc2ccc(-c3nn(C4CCCOC4)c4ncnc(N)c34)cc2F)on1` (centres unmarked) [Ia-19, 1-(4-(4-amino-1-(tetrahydro-2H-pyran-3-yl)-1H-pyrazolo[3,4-d]pyrimidin-3-yl)-2-fluorophenyl)-3-(3-(tert-butyl)isoxazol-5-yl)urea], the IC50 was in the range of 301 to 500 nM.

In the case of `CC(C)(C)c1cc(NC(=O)Nc2ccc(-c3nn(C4CC4)c4ncnc(N)c34)cc2)on1` [Ia-20, 1-(4-(4-amino-1-cyclopropyl-1H-pyrazolo[3,4-d]pyrimidin-3-yl)phenyl)-3-(3-(tert-butyl)isoxazol-5-yl)urea], the IC50 was below 150 nM.

The same assay, now with this note: comparative compounds of Structure (II).
Consider `CC(C)n1nc(-c2ccc3c(c2F)CCN3C(=O)Cc2cccc(C(F)(F)F)c2)c2c(N)ncnc21` [II-1, l-(5-(4-amino-1-isopropyl-1H-pyrazolo[3,4-d]pyrimidin-3-yl)-4-fluoroindolin-1-yl)-2-(3-(trifluoromethyl)phenyl)ethan-1-one], for which the concentration for half-maximal inhibition (IC50) was in the range of 301 to 500 nM.

Turning to `CC(C)n1nc(-c2ccc3c(c2F)CCN3C(=O)Cc2ccc(F)c(C(F)(F)F)c2)c2c(N)ncnc21` [II-2, 1-(5-(4-amino-1-isopropyl-1H-pyrazol[3,4-d]pyrimidin-3-yl)-4-fluoroindolin-1-yl)-2-(4-fluoro-3-(trifluoromethyl)phenyl)ethan-1-one], the IC50 lay within 151 to 300 nM.

Regarding `Nc1ncnc2c1c(-c1ccc3c(c1F)CCN3C(=O)Cc1cccc(C(F)(F)F)c1)nn2C1CC1` [II-4, 1-(5-(4-amino-1-cyclopropyl-1H-pyrazolo[3,4-d]pyrimidin-3-yl)-4-fluoroindolin-1-yl)-2-(3-(trifluoromethyl)phenyl)ethan-1-one], the IC50 lay in the range of 151 to 300 nM.

Regarding `Cc1ccc(CC(=O)N2CCc3c2ccc(-c2nn(C(C)C)c4ncnc(N)c24)c3F)cc1C(F)(F)F` [II-5, 1-(5-(4-amino01-isopropyl-1H-pyrazolo[3,4-d]pyrimidin-3-yl)-4-fluoroindolin-1-yl)-2-(4-methyl-3-(trifluoromethyl)phenyl)ethan-1-one], the IC50 fell in the range of 301 to 500 nM.

For the compound `Cc1c(CC(=O)N2CCc3c2ccc(-c2nn(C(C)C)c4ncnc(N)c24)c3F)cccc1C(F)(F)F` [II-6, 1-(5-(4-amino-1-isopropyl-1H-pyrazolo[3,4-d]pyrimidin-3-yl)-4-fluoroindolin-l-yl)-2-(2-methyl-3-(trifluoromethyl)phenyl)ethan-1-one], the IC50 is above 1500 nM.

In the case of `CC(C)n1nc(-c2ccc3c(c2F)CCN3C(=O)Cc2cccc(OC(F)(F)F)c2)c2c(N)ncnc21` [II-7, 1-(5-(4-amino-1-isopropyl-1H-pyrazolo[3,4-d]pyrimidin-3-yl)-4-fluoroindolin-1-yl)-2-(3-(trifluoromethoxy)phenyl)ethan-1-one], the IC50 fell in the range of 151 to 300 nM.

As for `CC(C)n1nc(-c2ccc3c(c2Cl)CCN3C(=O)Cc2ccc(F)c(C(F)(F)F)c2)c2c(N)ncnc21` [II-8, 1-(5-(4-amino-1-isopropyl-1H-pyrazolo[3,4-d]pyrimidin-3-yl)-4-chloroindolin-1-yl)-2-(4-fluoro-3-(trifluoromethyl)phenyl)ethan-1-one], the IC50 is 501 to 1500 nM.

In the case of `Nc1ncnc2c1c(-c1ccc3c(c1F)CCN3C(=O)Cc1ccc(F)c(C(F)(F)F)c1)nn2C1COC1` [II-9, 1-(5-(4-amino-1-(oxetan-3-yl)-1H-pyrazolo[3,4-d]pyrimidin-3-yl)-4-fluoroindolin-1-yl)-2-(4-fluoro-3-(trifluoromethyl)phenyl)ethan-1-one], the concentration for half-maximal inhibition (IC50) was in the range of 501 to 1500 nM.

For the compound `Nc1ncnc2c1c(-c1ccc3c(c1Cl)CCN3C(=O)Cc1ccc(F)c(C(F)(F)F)c1)nn2C1COC1` [II-10, 1-(5-(4-amino-1-(oxetan-3-yl)-1H-pyrazolo[3,4-d]pyrimidin-3-yl)-4-chloroindolin-1-yl)-2-(4-fluoro-3-(trifluoromethyl)phenyl)ethan-1-one], the IC50 lay in the range of 151 to 300 nM.

For the origin of these results see patent publication US20230210853A1 (Halia Therapeutics, Inc., priority 2020, published 2023).
